Laboratory results: patent US20090264528A1, “SERINE PALMITOYLCOA TRANSFERASE (SPT) INHIBITION BY MYRIOCIN OR GENETIC DEFICIENCY DECREASES CHOLESTEROL ABSORPTION” (The Research Foundation of State University of New York, priority 2008, published 2009)

How the values were obtained:
[1] = tested on: primary enterocyte; assay: Cholesterol and oleic acid uptake by primary enterocytes; assay type: cell-based, mouse
Description: FIGS. 6A-D depict several graphs that illustrate that SPT deficient enterocytes absorb less cholesterol than controls. Enterocytes were isolated from mice (n=4, 12-14 weeks old) and resuspended in 4 ml of DMEM containing 0.05 microCi/ml of either [^14C]cholesterol (FIGS. 6A and 6C) or [^3H]oleic acid (FIGS. 6B and 6D). Enterocytes (100 microl) were collected at 5, 10, and 20 minutes, washed twice with DMEM, and cellular radioactivity was determined. The amounts of lipids were normalized to protein and plotted against time. FIGS. 6A and 6B, WT vs WT/myriocin; FIGS. 6C and 6D, WT vs Sptlc1^+/−, Values are mean±SD. *P<0.01.
Cholesterol uptake by primary enterocyte: The enterocyte cholesterol uptake study was carried out as disclosed in: Iqbal J, Hussain M M. Evidence for multiple complementary pathways for efficient cholesterol absorption in mice. J Lipid Res. 2005; 46:1491-1501, which is incorporated herein by reference in its entirety.
For further confirmation of the above in vivo observations, enterocytes were isolated from myriocin-treated or Sptlc1^+/− mice, as well as controls, incubated with radiolabeled cholesterol for varying times, and the cellular radioactivity was determined. […] Experiments were performed to study the uptake of [^3H]oleic acid.

[2] = tested on: NPC1L1; assay: Western blot of small intestine homogenates, NPC1L1; assay type: in vivo, mouse; conditions: WT and apoE KO mice, compared with nontreated animals
Description: FIG. 8 depicts that SPT deficiency decreased NPC1L1 and ABCA1, and increased ABCG5 in mouse small intestine. Tissue homogenates were prepared as described in Methods, and equal amounts of homogenates from each mouse were pooled in each group (n=5). A total of 50 microg pooled sample from each group was immunoblotted with antibodies against NPC1L1, ABCA1, and ABCG5. Immunoblots of beta (β)-actin were used as a loading control.
Preparation and Western blot analysis of small intestine homogenates: A total of 50-100 mg of small intestine sample was homogenized and lysed proteins were immunoblotted, as previously described, (3) with a polyclonal rabbit antihuman NPC1L1 antiserum 69B, a polyclonal rabbit antimouse ABCG5 antiserum, a polyclonal antimouse ABCA1 antibody, and a monoclonal mouse anti-(beta)β-actin antibody.
Next, Western blot measurements of NPC1L1 and ABCG5/G8 were completed, where the measurement were located in apical membranes of the enterocytes. […] Also, ABCA1 was measured, which is located in the basal membranes of the enterocytes and is involved in cholesterol secretion.

[3] = Mouse plasma lipid measurement; assay type: in vivo; conditions: for plasma Chol (cholesterol) / plasma PC (phosphatidylcholine) / plasma SM (sphingomyelin) / plasma TG (triglycerol): mean ± SD, N=6
Description: Mice and diet: Male C57BL/6J and apoE KO (Apolipoprotien E knockout) mice with a C57BL/6J background were obtained from the Jackson Laboratory (Bar Harbor, Me.). Sptlc1 heterozygous KO mice with a C57BL/6 background were created and bred in the inventors' laboratory. Myriocin was mixed with a chow diet. Eight- to 12-week-old WT or apoE KO (n=6) mice received myriocin 0.3 mg kg^−1·d^−1 for 12 weeks. The myriocin dose was chosen from a previous dose-dependent experiment with apoE-KO mice. Controls consisted of WT or apoE KO mice fed a chow diet (n=6). Sptlc1 heterozygous KO (Sptlc1^+/−)(n=6) and WT mice were also fed a chow diet. […]
As reported previously in (25), which is incorporated by reference herein, Sptlc1^+/− and WT mice had identical plasma lipid levels (Table 1).

[4] = tested on: NPC1L1 mRNA; assay: Real-time PCR, NPC1L1 mRNA; assay type: in vivo, mouse; conditions: small intestine (jejunum)
Description: FIGS. 9A-F depict that Mouse small intestine and liver NPC1L1, ABCG5/G8, and ABCA1 mRNA measurements. NPC1L1, ABCG5/G8, and ABCA1 mRNA levels were measured by real-time PCR as described in “Methods and Materials.” FIG. 9A, jejunum from WT mice with or without myriocin treatment; FIG. 9B, jejunum from apoE KO mice with or without myriocin treatment; FIG. 9C, jejunum from WT and Sptlc1^+/− mice; FIG. 9D, liver from WT mice with or without myriocin treatment; FIG. 9E, liver from apoE KO mice with or without myriocin treatment; FIG. 9F, liver from WT and Sptlc1^+/− mice. Values are mean±SD, n=5. *P<0.01.
Real-time PCR examined genes' expression: Mice were sacrificed by cervical dislocation. Jejunum was dissected, and total RNA extracted with Trizol (Invitrogen). cDNA was synthesized with an Invitrogen kit. […] The genes' relative expression was expressed as mean±SD. […]
For further elucidation of the possible mechanisms for cholesterol absorption reduction in the SPT-deficient small intestine, NPC1L1, ABCG5/G8, and ABCA1 mRNA levels in myriocin-treated WT, apoE KO, and Sptlc1^+/− mice, as well as in controls were measured. […] Also, the liver mRNA levels were measured to find that myriocin treatment or Sptlc1 deficiency has no influence on ABCG5/G8 mRNA levels (FIG. 7B). […] NPC1L1 mRNA in WT or Sptlc1^+/− livers were not detected (data not shown).

## CCCCCCC(=O)CCCCCC/C=C/C[C@@H](O)[C@H](O)[C@@](N)(CO)C(=O)O [Myriocin, myriocin]
[1]; enterocytes isolated from myriocin-treated mice
  uptake of [3H]oleic acid vs controls: No significant changes
[1]; enterocytes isolated from myriocin-treated mice, 5, 10, 20 minutes
  radiolabeled cholesterol uptake (cellular radioactivity) vs controls: significantly less radioactivity
[2]
  NPC1L1 protein mass in small intestine: significantly decreased
[3]; ApoE KO mice
  plasma Chol (cholesterol): 350 ± 42 mg/dL
  plasma PC (phosphatidylcholine): 334 ± 49 mg/dL
  plasma SM (sphingomyelin): 39 ± 4 mg/dL
  plasma TG (triglycerol): 89 ± 13 mg/dL
[3]; WT mice
  effect on plasma lipids, including SM, PC, and cholesterol levels: no significant effect
  plasma Chol (cholesterol): 95 ± 12 mg/dL
  plasma PC (phosphatidylcholine): 155 ± 31 mg/dL
  plasma SM (sphingomyelin): 22 ± 2 mg/dL
  plasma TG (triglycerol): 71 ± 15 mg/dL
[3]; apoE KO mice, P<0.001
  decrease of plasma SM compared with controls: 48%
[3]; apoE KO mice, P<0.01
  decrease of plasma cholesterol compared with controls: 37%
[4]
  NPC1L1 mRNA levels: No significant changes
